Data on four compounds can be found in ChEMBL document CHEMBL1201862, “PubChem BioAssay data set” (2004).

Test systems include OVCAR-3; BT-549; SF-268; T47D; SF-295; HCC 2998; SW-620; MDA-MB-435; RXF 393; OVCAR-4; OVCAR-8; HT-29; KM12; CAKI-1; HCT-15; COLO 205; DU-145; NCI-H23; NCI-H226; U-251.
Holding throughout (assay): NCI anticancer screen, dose series, 48 h

SMILES strings stand for the structures.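 The compound was tested at five concentrations on cells cultured in 96-well plates, with a 48-hour exposure period. The concentration for 50% growth inhibition is given as GI50.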 Active and inactive are the calls of the source. No stated cut-off is given here; in the data, active = GI50 up to about 1.1 µM and inactive = higher.

For `O=c1[nH]nc(-c2ccccc2)n1/N=C/c1cccs1`, the GI50 was > 100 µM (inactive) with OVCAR-3; 27.5 µM (inactive) in the assay on BT-549; > 100 µM (inactive) in the assay with SF-268; 38.1 µM (inactive) in the assay with T47D; 72.3 µM (inactive) in the assay on SF-295; > 100 µM (inactive) in the assay on HCC 2998. The GI50 in the assay on SW-620 is 82 µM (inactive); in the assay with MDA-MB-435 it was 28.2 µM (inactive); in the assay on RXF 393 it was 37.3 µM (inactive); in the assay on OVCAR-4 it was 21.7 µM (inactive); with OVCAR-8 it was 37.4 µM (inactive); in the assay on HT-29, 65.5 µM (inactive). Moreover, the GI50 in the assay with KM12 is > 100 µM (inactive); with CAKI-1, > 100 µM (inactive); in the assay on HCT-15 it was 44.3 µM; in the assay with COLO 205 it was 19.5 µM (inactive); in the assay on DU-145, 32.3 µM (inactive); in the assay on NCI-H23, 36.6 µM (inactive). The GI50 with NCI-H226 is 59.4 µM (inactive); in the assay on U-251, > 100 µM (inactive).
`CN(C)Cc1cc(C(=O)O)cc(CN(C)C)c1O`: the GI50 with OVCAR-3, in the assay with BT-549, in the assay with SF-268, in the assay with T47D, in the assay with SF-295 and with HCC 2998 was > 100 µM (inactive) in each case. The GI50 in the assay with SW-620, in the assay on MDA-MB-435, with RXF 393, in the assay with OVCAR-4, in the assay on OVCAR-8 and with HT-29 was > 100 µM (inactive) throughout. Further, the GI50 in the assay on KM12 is > 100 µM (inactive); in the assay on CAKI-1, > 100 µM (inactive); in the assay with HCT-15, over 100 µM; in the assay on COLO 205, > 100 µM (inactive); in the assay with DU-145 it was > 100 µM (inactive); in the assay with NCI-H23, > 100 µM (inactive). Further, the GI50 in the assay on NCI-H226 and in the assay with U-251 was > 100 µM (inactive) throughout.
In the case of `Cc1nc(Nc2ccc(F)cc2)c2sc(=S)n(-c3ccc(F)cc3)c2n1`, the GI50 with OVCAR-3 is 17.1 µM (inactive); with BT-549 it was 13.3 µM (inactive); in the assay with SF-268, 11 µM (inactive); with T47D it was 5.31 µM (inactive); in the assay with SF-295, 14.3 µM (inactive); in the assay with HCC 2998 it was 12.2 µM (inactive). The GI50 in the assay on SW-620 was 9.77 µM (inactive); in the assay on MDA-MB-435 it was 10.8 µM (inactive); with RXF 393, 12.6 µM (inactive); with OVCAR-4 it was 15.5 µM (inactive); in the assay on OVCAR-8, 15.6 µM (inactive); in the assay on HT-29 it was 6.17 µM (inactive). In addition, the GI50 is 15 µM (inactive) in the assay with KM12; 18.3 µM (inactive) in the assay on CAKI-1; 3.09 µM with HCT-15; 14.5 µM (inactive) with COLO 205; 13.4 µM (inactive) in the assay on DU-145; 4.24 µM (inactive) in the assay with NCI-H23. The values for the GI50 with NCI-H226 and with U-251 were 16.1 µM (inactive) and 14.7 µM (inactive), respectively.
As for `CC(=O)Nc1ccc(NS(=O)(=O)c2ccc3nc(C)n(NS(=O)(=O)c4ccc(NC(C)=O)cc4)c(=O)c3c2)cc1`, the GI50 in the assay on OVCAR-3, in the assay on BT-549, with SF-268, in the assay with T47D, with SF-295 and in the assay with HCC 2998 was > 100 µM (inactive) throughout. Moreover, the GI50 with SW-620, with MDA-MB-435, with RXF 393, with OVCAR-4, in the assay on OVCAR-8 and in the assay on HT-29 was > 100 µM (inactive) each time. Also, the GI50 in the assay on KM12 was > 100 µM (inactive); with CAKI-1, > 100 µM (inactive); in the assay on HCT-15 it was over 100 µM; with COLO 205, > 100 µM (inactive); with DU-145, > 100 µM (inactive); with NCI-H23, > 100 µM (inactive). In addition, the GI50 with NCI-H226 and with U-251 was > 100 µM (inactive) each time.
